Test results from PubChem BioAssay AID1918933 (Molecular Pharmacology Branch, DTP, NCI, 2023).
pIC50: −log10 of the molar value. Several values for one entry are separate records, joined by “and”; a condition that tells them apart may be missing. Identical values can stand only once.

System: 186277-243-T-J2-PDC complex spheroid viability
Test: Anticancer human tumor 186277-243-T-J2-PDC patient-derived colon adenocarcinoma cell line growth inhibition
Conditions: for viability, T/C: stronger effect = lower value
Excerpt: Multicellular complex tumor spheroid response to LSD1 Inhibitor Iadademstat in combination with a variety of drugs and investigational agents in selected tumor cell lines
The current study was undertaken to assess response to LSD1 inhibitors in combination with standard-of-care drugs and investigational agents in solid tumor complex spheroid models as well as in the K-562 leukemia. Complex spheroids include a stromal component modeled by human endothelial cells (HUVEC) and fibroblasts modeled by human mesenchymal stem cells (MSCs). The concentration ranges selected for each drug and investigational agent were based upon clinically achievable concentrations if the clinical Cmax of the agent was known.
Compounds. The drugs and investigational agents used in this study are listed on Table 1. All of the agents used, including staurosporine (NSC755774) and gemcitabine (NSC613327), were obtained from the Developmental Therapeutics Program, NCI. FDA-approved anticancer drugs are available from the NCI at http://dtp.nci.nih.gov/branches/dscb/oncology_drugset_explanation.html. Drugs and investigational agents were >95% pure by proton nuclear magnetic resonance (NMR) and liquid chromatography/mass spectrometry (LC/MS). Stock solutions were prepared at 400x in DMSO, stored at -70 degrees C, and diluted in fresh medium prior to their use. The final concentration of DMSO in cell culture wells never exceeded 0.25% (v/v). The FDA-approved anticancer drug set is available from the Developmental Therapeutics Program at https://dtp.cancer.gov/organization/dscb/obtaining/available_plates.htm. All drugs and investigational agents were tested over a range starting from a high concentration at or near the clinical Cmax and decreasing in half-log increments. If the clinical Cmax for an agent had not been determined, the highest concentration tested was 10 microM.
Cell Lines. The patient-derived cancer cell (PDC) lines: 292921-168-R-J2-PDC, K24384-001-R-PDC, and 521955-158-R2-J5-PDC pancreatic carcinomas, 556581-035-R-J1 ovarian carcinoma, 324938-238-R-J1-PDC, 855422-203-R-J1-PDC and 883617-216-R-J1-PDC urothelial bladder carcinomas, 743489-274-T-PDC renal cell carcinoma, 138582-R-J1 Merkel cell tumor, K60290-347-R-J1 and K57222-313-R-J1-PDC glioblastomas, 653999-131-R-J2-PDC, LG0703-F948-PDC, and 349418-098-R-PDC non-small cell lung carcinomas, 885512-296-R-J2-PDC, 171881-019-R-J1-PDC breast carcinomas and 186277-243-T-J2-PDC and 233499-124-R-J2-PDC colon carcinomas were obtained from the NCI Patient-Derived Models Repository (PDMR, https://pdmr.cancer.gov). The established cell lines NCI/ADR-RES (RRID:CVCL_14520 and OVCAR-5 (RRID:CVCL_1628) ovarian carcinomas, 786-O (RRID:CVCL_1051) and A498 (RRID:CVCL_A498) renal cell carcinoma, NCI-H211 (ATCC, cat. CRL-5824; RRID:CVCL_1529), NCI-H196 (ATCC, cat. CRL-5823, RRID:CVCL_1509), SW 1271 (ATCC, cat. CRL-2177, RRID:CVCL_1716) and NCI-H1876 (ATCC, cat. CRL-5902, RRID:CVCL_1503) small cell lung carcinomas, MDA-MB-231 (RRID:CVCL_0062) and MDA-MB-468 (RRID:CVCL_0419)breast carcinomas (10-12). Pooled donor human umbilical vein endothelial cells (HUVEC, Lonza, cat. CC-2519) and human mesenchymal stem cells (hMSC, Lonza, cat. PT-2501) were purchased from Lonza (Walkersville, MD).
Cell Culture. All cells were maintained in an incubator at 37 degrees C and 5% CO2 with 95% humidity. The PDC lines were cultured according to standard operating procedures established by the NCI PDMR (https://pdmr.cancer.gov). Briefly all PDCs were thawed and cultured in Matrigel-coated flasks prepared with a working solution of 1X Ham's F-12 nutrient mix, without supplementation (Invitrogen, Waltham, MA, cat. 11765054), 100 U/mL penicillin-streptomycin (Invitrogen, cat. 15140122), and 2.5% Matrigel (Corning Inc., Corning, NY, cat. 354248) for the first three passages. […]

[1] = curve of first compound, second compound 0.1 µM
[2] = curve of first compound, second compound 0.316 µM
[3] = curve of first compound, second compound 1 µM
[4] = curve of first compound, second compound 3.16 µM
[5] = curve of first compound, second compound 10 µM
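Further: 7 day exposure to compounds.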
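Wherever viability, T/C is given: 100% = DMSO vehicle control viability.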

NS(=O)(=O)OCC1CC(n2ccc3c(NC4CCc5ccccc54)ncnc32)CC1O (centres undefined) + NC1CC1c1ccc(-c2cccc(O)c2)cc1
pIC50 [1]: 6.60 | pIC50 [2]: 6.52 | pIC50 [3]: 6.50 | pIC50 [4]: 6.40 | pIC50 [5]: 6.58 | viability, T/C (second compound 0.1 µM, first compound 0.00949 µM): 98.8% | viability, T/C (second compound 0.1 µM, first compound 0.03 µM): 89.8% | viability, T/C (second compound 0.1 µM, first compound 0.0949 µM): 76.8% | viability, T/C (second compound 0.1 µM, first compound 0.3 µM): 47.3% | viability, T/C (second compound 0.1 µM, first compound 0.949 µM): 11% | viability, T/C (second compound 0.1 µM, first compound 3 µM): 4.48% | viability, T/C (second compound 0.316 µM, first compound 0.00949 µM): 104% | viability, T/C (second compound 0.316 µM, first compound 0.03 µM): 101% | viability, T/C (second compound 0.316 µM, first compound 0.0949 µM): 82.3% | viability, T/C (second compound 0.316 µM, first compound 0.3 µM): 53.9% | viability, T/C (second compound 0.316 µM, first compound 0.949 µM): 11.7% | viability, T/C (second compound 0.316 µM, first compound 3 µM): 3.87% | viability, T/C (second compound 1 µM, first compound 0.00949 µM): 116% | viability, T/C (second compound 1 µM, first compound 0.03 µM): 96.8% | viability, T/C (second compound 1 µM, first compound 0.0949 µM): 85.1% | viability, T/C (second compound 1 µM, first compound 0.3 µM): 55.9% | viability, T/C (second compound 1 µM, first compound 0.949 µM): 14.4% | viability, T/C (second compound 1 µM, first compound 3 µM): 4.26% | viability, T/C (second compound 3.16 µM, first compound 0.00949 µM): 116% | viability, T/C (second compound 3.16 µM, first compound 0.03 µM): 98.2% | viability, T/C (second compound 3.16 µM, first compound 0.0949 µM): 84.4% | viability, T/C (second compound 3.16 µM, first compound 0.3 µM): 69% | viability, T/C (second compound 3.16 µM, first compound 0.949 µM): 12.8% | viability, T/C (second compound 3.16 µM, first compound 3 µM): 3.82% | viability, T/C (second compound 10 µM, first compound 0.00949 µM): 107% | viability, T/C (second compound 10 µM, first compound 0.03 µM): 90.6% | viability, T/C (second compound 10 µM, first compound 0.0949 µM): 73.4% | viability, T/C (second compound 10 µM, first compound 0.3 µM): 52.8% | viability, T/C (second compound 10 µM, first compound 0.949 µM): 14% | viability, T/C (second compound 10 µM, first compound 3 µM): 3.25%

Nc1ccn(C2OC(CO)C(O)C2(F)F)c(=O)n1 (centres undefined)
viability, T/C (compound 0.000949 µM): 17.2% and 101% | viability, T/C (compound 0.003 µM): 16.7% and 32.3% | viability, T/C (compound 0.00949 µM): 16.5% and 13% | viability, T/C (compound 0.03 µM): 16.5% and 11.9% | viability, T/C (compound 0.0949 µM): 17.1% and 12.7% | viability, T/C (compound 0.3 µM): 14.7% and 14% | pIC50 (curve of compound): > 9.02 and 8.65

Nc1ncn(C2CC(O)C(CO)O2)c(=O)n1 (centres undefined) + NC1CCC(NC2CC2c2ccccc2)CC1
pIC50 [1]: < 6.00 | pIC50 [2]: < 6.00 | pIC50 [3]: < 6.00 | pIC50 [4]: < 6.00 | pIC50 [5]: < 6.00 | viability, T/C (second compound 0.1 µM, first compound 0.00316 µM): 97.6% | viability, T/C (second compound 0.1 µM, first compound 0.01 µM): 110% | viability, T/C (second compound 0.1 µM, first compound 0.0316 µM): 98.2% | viability, T/C (second compound 0.1 µM, first compound 0.1 µM): 129% | viability, T/C (second compound 0.1 µM, first compound 0.316 µM): 139% | viability, T/C (second compound 0.1 µM, first compound 1 µM): 142% | viability, T/C (second compound 0.316 µM, first compound 0.00316 µM): 95.9% | viability, T/C (second compound 0.316 µM, first compound 0.01 µM): 111% | viability, T/C (second compound 0.316 µM, first compound 0.0316 µM): 107% | viability, T/C (second compound 0.316 µM, first compound 0.1 µM): 127% | viability, T/C (second compound 0.316 µM, first compound 0.316 µM): 141% | viability, T/C (second compound 0.316 µM, first compound 1 µM): 138% | viability, T/C (second compound 1 µM, first compound 0.00316 µM): 102% | viability, T/C (second compound 1 µM, first compound 0.01 µM): 119% | viability, T/C (second compound 1 µM, first compound 0.0316 µM): 111% | viability, T/C (second compound 1 µM, first compound 0.1 µM): 130% | viability, T/C (second compound 1 µM, first compound 0.316 µM): 127% | viability, T/C (second compound 1 µM, first compound 1 µM): 135% | viability, T/C (second compound 3.16 µM, first compound 0.00316 µM): 101% | viability, T/C (second compound 3.16 µM, first compound 0.01 µM): 108% | viability, T/C (second compound 3.16 µM, first compound 0.0316 µM): 112% | viability, T/C (second compound 3.16 µM, first compound 0.1 µM): 137% | viability, T/C (second compound 3.16 µM, first compound 0.316 µM): 151% | viability, T/C (second compound 3.16 µM, first compound 1 µM): 138% | viability, T/C (second compound 10 µM, first compound 0.00316 µM): 113% | viability, T/C (second compound 10 µM, first compound 0.01 µM): 105% | viability, T/C (second compound 10 µM, first compound 0.0316 µM): 116% | viability, T/C (second compound 10 µM, first compound 0.1 µM): 140% | viability, T/C (second compound 10 µM, first compound 0.316 µM): 140% | viability, T/C (second compound 10 µM, first compound 1 µM): 132%

CC(C)c1c(-c2ccccc2)nc2c(C#N)c[nH]n2c1=O
viability, T/C (compound 0.0316 µM): 94.8% and 108% | viability, T/C (compound 0.1 µM): 93.3% and 97.7% | viability, T/C (compound 0.316 µM): 101% and 99.1% | viability, T/C (compound 1 µM): 97.6% and 97.4% | viability, T/C (compound 3.16 µM): 96% and 82.9% | viability, T/C (compound 10 µM): 85.3% and 72.9% | pIC50 (curve of compound): < 5.00
